Reference: paper PMC8893300, “A Dynamic Mass Redistribution Assay for the Human Sweet Taste Receptor Uncovers G-Protein Dependent Biased Ligands” (Frontiers in Pharmacology, 2022)
Read-outs that look alike come from different tables or passages of the source. Marks after values point to notes of the source that are not given here. Residues, ends and D or L forms follow the SMILES beside them.

Key:
[1] = target: T1, human sweet taste receptor (hT1R2/hT1R3) (Homo sapiens, UniProt Q7RTX0+Q8TE23); experiment: DMR assay (Epic reader) on R2/R3 U2OS cells, endogenous G proteins; format: cell-based; settings: for EC50: R2/R3 U2OS cells, peak DMR response; for ΔlogR DMR Mean: Table 2, operational model, logR minus sucralose logR; for Activity in DMR assay Emax: top asymptote of dose-response normalized to 1 mM sucralose
T1 construct: expressed in transfected cells
T1 sequence (Q8TE23 20-839): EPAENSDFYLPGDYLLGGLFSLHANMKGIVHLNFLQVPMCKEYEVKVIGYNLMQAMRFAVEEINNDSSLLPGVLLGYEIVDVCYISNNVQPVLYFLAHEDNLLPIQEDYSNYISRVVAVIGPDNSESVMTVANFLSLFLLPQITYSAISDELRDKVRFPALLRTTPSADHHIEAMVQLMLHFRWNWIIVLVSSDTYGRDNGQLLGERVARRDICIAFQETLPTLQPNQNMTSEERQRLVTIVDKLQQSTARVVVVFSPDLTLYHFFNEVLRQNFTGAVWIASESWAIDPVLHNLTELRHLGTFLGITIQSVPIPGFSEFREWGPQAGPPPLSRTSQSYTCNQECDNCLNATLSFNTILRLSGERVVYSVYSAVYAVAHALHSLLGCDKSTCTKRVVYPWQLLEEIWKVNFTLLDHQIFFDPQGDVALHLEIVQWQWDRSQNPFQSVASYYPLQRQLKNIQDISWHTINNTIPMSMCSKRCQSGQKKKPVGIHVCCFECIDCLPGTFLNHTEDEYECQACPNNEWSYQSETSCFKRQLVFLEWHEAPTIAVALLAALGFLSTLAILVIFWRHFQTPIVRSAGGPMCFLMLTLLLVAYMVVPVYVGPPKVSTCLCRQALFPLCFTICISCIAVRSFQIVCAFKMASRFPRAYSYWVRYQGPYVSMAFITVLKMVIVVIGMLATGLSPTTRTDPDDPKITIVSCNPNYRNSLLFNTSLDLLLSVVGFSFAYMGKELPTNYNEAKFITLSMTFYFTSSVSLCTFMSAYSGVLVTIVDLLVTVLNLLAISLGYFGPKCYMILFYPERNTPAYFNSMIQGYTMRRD
T1 sequence (Q7RTX0 21-852): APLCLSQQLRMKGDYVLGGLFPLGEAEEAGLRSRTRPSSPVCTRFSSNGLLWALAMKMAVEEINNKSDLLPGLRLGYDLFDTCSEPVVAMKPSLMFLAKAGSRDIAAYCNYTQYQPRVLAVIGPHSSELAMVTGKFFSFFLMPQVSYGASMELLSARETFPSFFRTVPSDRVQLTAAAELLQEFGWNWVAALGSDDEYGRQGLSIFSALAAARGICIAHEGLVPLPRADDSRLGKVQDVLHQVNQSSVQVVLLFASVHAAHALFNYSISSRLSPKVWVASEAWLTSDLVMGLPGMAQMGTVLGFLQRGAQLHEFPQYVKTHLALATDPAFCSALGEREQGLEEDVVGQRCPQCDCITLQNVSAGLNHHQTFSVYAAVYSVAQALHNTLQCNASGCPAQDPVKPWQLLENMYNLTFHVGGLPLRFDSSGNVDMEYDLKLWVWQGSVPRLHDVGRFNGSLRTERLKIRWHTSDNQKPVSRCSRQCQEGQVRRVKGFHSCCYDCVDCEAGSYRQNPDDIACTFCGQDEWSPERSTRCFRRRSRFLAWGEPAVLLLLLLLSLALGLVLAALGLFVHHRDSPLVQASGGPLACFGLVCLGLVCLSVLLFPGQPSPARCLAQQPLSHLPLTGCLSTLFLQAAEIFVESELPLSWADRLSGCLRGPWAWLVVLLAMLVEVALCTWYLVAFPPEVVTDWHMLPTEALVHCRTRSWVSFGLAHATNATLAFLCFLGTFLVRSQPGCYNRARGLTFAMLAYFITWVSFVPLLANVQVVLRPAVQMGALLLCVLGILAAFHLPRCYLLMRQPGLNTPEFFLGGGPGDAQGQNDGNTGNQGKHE
Procedure: The plates were incubated in the tissue culture hood for 20 min to allow cells to settle evenly at the bottom of the microplate and further cultured at 37°C in an atmosphere of 5% CO2 for 18–24 h. The next day, the cells were subjected to functional analysis using DMR. […] When indicated, data for agonist dose-responses were normalized to data obtained with a maximum concentration of sucralose (1 mM) and then fitted and plotted using GraphPad Prism (San Diego, CA) and non-linear regression analysis.
(§1) This value, that we termed pEC50Ratio (sucralose) or pEC50R (sucralose), was calculated with EC50 values obtained in the two assay systems. This transformation also allowed determination of an average and a standard error for the pEC50R (sucralose). The two sets of data (DMR and FLIPR data) were then analyzed with an un-paired t-test (α = 0.05). To calculate relative efficacy bias between the two assays, we captured the top asymptote value from each activity-normalized dose-response curve, as provided by the curve fit, calculated an average and a standard deviation (sd) for each agonist and then analyzed the data pairs with an un-paired t-test (α = 0.05). […] The following steps were followed: 1) Using the PRISM software, we re-analyzed each ligand’s dose-response data obtained in each assay with non-linear regression and the users-defined equation “New Operational Model with TauKa ratios” and retrieved logR values from the fits. 2) Subtracted each ligand’s logR value with that of our standard, the sucralose logR value, obtained from the same data set (each ligand dose-response assay data used in this analysis was accompanied with a sucralose dose-response ran on the same day), producing the ΔlogR value for leach ligand in each assay. 3) Calculated the mean and SEM from ΔlogR replicates (from three to nine independent dose-response analysis, in the two different assays). 4) Calculated ΔΔlogR values by subtracting the averaged ligands’ ΔlogR FLIPR values with the averaged ligands’ ΔlogR DMR values.

[2] = target: T2, human sweet taste receptor (hT1R2/hT1R3) coupled to Gα15 (Homo sapiens, UniProt Q7RTX0+Q8TE23); experiment: FLIPR calcium mobilization assay, R2/R3 U2OS cells transduced with Gα15 baculovirus; format: cell-based; settings: for ΔlogR FLIPR Mean: FLIPR-Gα15, operational model, logR minus sucralose logR; for Activity in FLIPR assay Emax: top asymptote of dose-response normalized to 1 mM sucralose; for ΔΔlogR Mean: ΔlogR FLIPR-Gα15 minus ΔlogR DMR
T2 construct: expressed in transfected cells
T2 sequence (Q8TE23 20-839): T1 sequence (Q8TE23 20-839)
T2 sequence (Q7RTX0 21-852): T1 sequence (Q7RTX0 21-852)
Procedure: The Gα15 coding sequence was inserted in the HindIII-NotI sites and recombinant virus was generated using the Bac-to-Bac system (Life Technologies). Virus was further amplified by propagation in Sf9 cells grown in suspension using Sf900-II media. Virus titers were determined by plaque assay on Sf9 cells.
Cells were gently mixed with the virus at a multiplicity of infection (MOI) of 5. Using a multidrop, 70 μl per well of the cell and virus mixture was dispensed in a 384-well clear bottom plate (Fisher). After 24 h of incubation in a humidified 37°C tissue culture incubator, trichostatin A was added to a final concentration of 0.3 μM and the cells were incubated for another 18–24 h at 34°C. On the day of the experiment, cells were loaded with 4 μM of the calcium indicator Fluo-4 AM (Invitrogen) in D-PBS for 1 h at room temperature. After washing the cells with D-PBS using a cell washer (BioTek) and a 30-minute rest time, the cell plate and the compound plate were transferred into the FLIPR-Tetra (Molecular Devices). […] Loading and the FLIPR assay were run as described above. When indicated, data for agonist dose-responses were normalized to data obtained with a maximum concentration of sucralose (1 mM) and then fitted and plotted using GraphPad Prism (San Diego, CA) and non-linear regression analysis.
as §1

[3] = read-out: Activity in DMR assay EC50
[4] = read-out: Activity in DMR assay pEC50 (converted)
[5] = Activity in FLIPR assay EC50, R2/R3 U2OS cells expressing Gα15
[6] = Activity in FLIPR assay pEC50, R2/R3 U2OS cells expressing Gα15
[7] = R2/R3 U2OS cells expressing Gα15, read-out: Activity in FLIPR assay EC50
[8] = R2/R3 U2OS cells expressing Gα15, read-out: Activity in FLIPR assay pEC50 (converted)

Structure (SMILES) | EC50 [1, 3] | EC50 [1, 4] | ΔlogR DMR Mean [1] | Activity in DMR assay Emax [1] | EC50 [2, 5] | EC50 [2, 6] | ΔlogR FLIPR Mean [2] | Activity in FLIPR assay Emax ([2]; Gα15) | Bias factor ([2]; inverse log of ΔΔlogR, FLIPR-Gα15 vs DMR) | ΔΔlogR Mean [2] | EC50 [2, 7] | EC50 [2, 8] | response in the FLIPR assay, in words ([2]; R2/R3 U2OS cells transduced with Gα15) | leftward shift in the sucralose dose-response in the DMR assay ([1]; 25 μM SE-2, mean ± sd, n = 3) | agonist activity on its own in the DMR assay, in words ([1]; 25 μM SE-2 at lower sucralose concentrations) | enhancement factor of the sucralose dose-response in the FLIPR assay ([2]; 25 μM SE-2, Gα15, mean ± sd, n = 4)
C[C@@H](NC(=O)[C@@H](N)CC(=O)O)C(=O)NC1C(C)(C)SC1(C)C [Alitame] | 37 µM | 32.5 µM | 0.35 | 106 | 20 µM | 19.4 µM | 0.52 | 100 | 1.5 | 0.18 | – | – | – | – | – | –
COC(=O)[C@H](Cc1ccccc1)NC(=O)[C@@H](N)CC(=O)O [Aspartame] (H-Asp-Phe-OMe) | 910 µM | 771 µM | −0.72 | 143 | – | – | −0.74 | 106 | – | −0.03 | 354 µM | 352 µM | – | – | – | –
O=C(CO)[C@@H](O)[C@H](O)[C@H](O)CO [D-fructose] | – | – | – | – | – | – | – | – | – | – | – | – | readily detected | – | – | –
CCOc1ccc(NC(N)=O)cc1 [Dulcin] | 33 µM | 30.7 µM | 0.20 | 57**** | – | – | 0.38 | 87**** | – | 0.18 | – | 23.1 µM | – | – | – | –
CCCOc1ccc([N+](=O)[O-])cc1N [P-4000] | – | 3.78 µM | 1.31 | 102 | – | – | 1.67 | 164**** | – | 0.36 | 2.2 µM | 2.12 µM | – | – | – | –
Cc1cc(C)c2c(c1)[C@H](NC(=O)c1conc1C)CCC2 [S679] | 1.3 µM | 1.22 µM | 2.07 | 133 | – | – | 2.15 | 159**** | – | 0.08 | 0.7 µM | 0.716 µM | – | – | – | –
COCc1cncc(-c2ccc(C(C)(C)C(=O)NCC(C)C)cc2)n1 [S1313] | – | 1.51 µM | 1.91 | 130 | – | – | 2.14 | 170**** | – | 0.22 | 0.7 µM | 0.665 µM | – | – | – | –
C[C@H](NC(=Nc1ccc(C#N)cc1)NCC(=O)O)c1ccccc1 [SC-45647] | 4.3 µM | 4.09 µM | 1.38 | 97** | – | – | 1.45 | 98** | – | 0.07 | – | 2.28 µM | – | – | – | –
Cc1sc2[nH]c(=O)nc(N)c2c1C [SE-2] | – | – | – | – | – | – | – | – | – | – | – | – | – | 5.1 ± 1.5 fold | did not produce any agonist activity on its own | 7.3 ± 0.9 fold
O=C1NS(=O)(=O)c2ccccc21 [Saccharin] | – | – | −0.31 | 145 | – | – | −0.47 | 90**** | – | −0.16 | – | – | – | – | – | –
C=C1C[C@@]23CC[C@H]4[C@@](C)(CCC[C@@]4(C)C(=O)O[C@@H]4O[C@H](CO)[C@@H](O)[C@H](O)[C@H]4O)[C@@H]2CC[C@]1(O[C@@H]1O[C@H](CO)[C@@H](O)[C@H](O)[C@H]1O[C@@H]1O[C@H](CO)[C@@H](O)[C@H](O)[C@H]1O)C3 [Stevioside] | 127 µM | 114 µM | 0.09 | 141 | 51 µM | 50.1 µM | 0.13 | 102 | – | 0.04 | – | – | – | – | – | –
